Data taken from publication PMC12481569, “Novltex: A New Class of Antibiotics with Potent Activity against Multidrug-Resistant Bacterial Pathogens–Design, Synthesis, and Biological Evaluation” (Journal of Medicinal Chemistry, 2025).
Values after ≈ are worked out from the molar mass of the structure shown. Values joined by “and” are separate entries in the source; they are usually repeats but may differ in a detail not shown here. Identical values can stand only once. Like-named read-outs stand apart in the source and are kept apart here. Positions of bridges follow the written chain, without caps; N, C: chain ends. Non-standard residues stand in square brackets, D forms with d. Residues, ends and D or L forms follow the SMILES beside them. d(aIle) = CC[C@H](C)[C@@H](N)C(=O)O; dChg = N[C@@H](C(=O)O)C1CCCCC1

Legend:
Assay in all cases: microbe, parasite or virus in culture
[1] = system: Multidrug-Resistant (MDR) E. faecium; conditions: for MIC: Enterococcus faecium
Protocol: (§1) We further evaluated analogue 12 against multidrug-resistant (MDR) strains of S. aureus (acquired from the NARSA collection) and MDR E. faecium (acquired from International Health Management Associates, IHMA, Europe Sarl), comparing its activity to various classes of clinically used antibiotics (Table ).
(§2) MICs were performed as previously reported 4. For MIC testing all peptides were dissolved in DMSO.
(§3) Bacterial cultures were grown overnight on Mueller-Hinton Agar (MHA) plates and adjusted to a final inoculum of 10^5 – 10^6 CFU/mL. 100 µl of ino culum in Meuller -Hinton broth (MHB) was mixed with equal volume of peptides (dissolved in MHB) at 2x their concentration in a 96 well plate . For daptomycin MIC determination, the same protocol was followed with the addition of 50 mg/L calcium chloride to the medium. MIC values were determined in the media contain ing polysorbate 80 (0.002%, v/v) to prevent non -specific adsorption of the peptides to plastic surfaces. The final peptides concentrations ranged from 0.0625 – 32 µg/mL. The 96 well plates were then incubated at 37 °C for 24 h. All the experiments were performed in two independent duplicates and the MIC was determined as the lowest concentration in which no visible growth was observed.
(§4) Antibiotics MIC break points ( µg/mL)
(§5) Table. S4: Susceptibility cut-off values (MIC breakpoints) for various clinical antibiotics. […]

[2] = system: Multidrug-Resistant (MDR) S. aureus; conditions: for MIC: Staphylococcus aureus; for susceptibility/resistance of the S. aureus isolates based on the MIC breakpoints: four MDR S. aureus isolates
Protocol: as §1, §2, §3, §4, §5

[3] = system: MRSA ATCC 33591; format: cell-based, Staphylococcus aureus; conditions: for MIC against MRSA ATCC 33591: 24 h, two independent duplicates; for fold decrease in antibacterial activity (MIC) compared to analogue 12: MRSA ATCC 33591
Protocol: as §2
as §3, with “observed. […]” for “observed.”

[4] = 24 h, read-out: MIC, Enterococcus faecium 1563254
[5] = 24 h, read-out: MIC, Enterococcus faecium 1581582
[6] = 24 h, read-out: MIC, Enterococcus faecium 1766686
[7] = 24 h, read-out: MIC, Staphylococcus aureus NR 45914
[8] = 24 h, read-out: MIC, Staphylococcus aureus NR 45926
[9] = 24 h, read-out: MIC, Staphylococcus aureus NR 45930
[10] = 24 h, read-out: MIC, Staphylococcus aureus NR 46062
[11] = broth dilution in MHB with 0.002% v/v polysorbate 80, inoculum 10^5-10^6 CFU/mL, 37 °C, no visible growth, Table 1
[12] = Table 2, MHB with 0.002% polysorbate 80, 37 °C

## CC1(C)S[C@@H]2[C@H](NC(=O)[C@H](N)c3ccccc3)C(=O)N2[C@H]1C(=O)O [Ampicillin]
[1]; [4]
  MIC: > 32 µg/mL
[1]; [5]
  MIC: > 32 µg/mL
[1]; [6]
  MIC: > 32 µg/mL
[2]; [7]
  MIC: 2 µg/mL (≈ 5.72 µM)
[2]; [8]
  MIC: 32 µg/mL (≈ 91.6 µM)
[2]; [9]
  MIC: 8 µg/mL (≈ 22.9 µM)
[2]; [10]
  MIC: 8 µg/mL (≈ 22.9 µM)
[2]
  susceptibility/resistance of the S. aureus isolates based on the MIC breakpoints: 3 out of 4 isolates showed resistance

## CO/N=C(\C(=O)N[C@@H]1C(=O)N2C(C(=O)O)=C(COC(C)=O)CS[C@H]12)c1csc(N)n1 [Cefotaxime]
[1]; [4]
  MIC: > 32 µg/mL
[1]; [5]
  MIC: > 32 µg/mL
[1]; [6]
  MIC: > 32 µg/mL
[2]; [7]
  MIC: 4 µg/mL (≈ 8.78 µM)
[2]; [8]
  MIC: 16 µg/mL (≈ 35.1 µM)
[2]; [9]
  MIC: 8 µg/mL (≈ 17.6 µM)
[2]; [10]
  MIC: 16 µg/mL (≈ 35.1 µM)

## C[C@H]1COc2c(N3CCN(C)CC3)c(F)cc3c(=O)c(C(=O)O)cn1c23 [Levofloxacin]
[1]; [4]
  MIC: 32 µg/mL (≈ 88.6 µM)
[1]; [5]
  MIC: 32 µg/mL (≈ 88.6 µM)
[1]; [6]
  MIC: 32 µg/mL (≈ 88.6 µM)
[2]; [7]
  MIC: 1 µg/mL (≈ 2.77 µM)
[2]; [8]
  MIC: 4 µg/mL (≈ 11.1 µM)
[2]; [9]
  MIC: > 32 µg/mL
[2]; [10]
  MIC: 32 µg/mL (≈ 88.6 µM)
[2]
  susceptibility/resistance of the S. aureus isolates based on the MIC breakpoints: 3 out of 4 isolates showed resistance

## CC(=O)NC[C@H]1CN(c2ccc(N3CCOCC3)c(F)c2)C(=O)O1 [Linezolid]
[1]; [4]
  MIC: 16 µg/mL (≈ 47.4 µM)
[1]; [5]
  MIC: 1 µg/mL (≈ 2.96 µM)
[1]; [6]
  MIC: 1 µg/mL (≈ 2.96 µM)
[1]; read-out: MIC, two E. faecium clinical isolates that remained susceptible to linezolid
  MIC: 1 µg/mL (≈ 2.96 µM)
[2]; [7]
  MIC: 2 µg/mL (≈ 5.93 µM)
[2]; [8]
  MIC: 32 µg/mL (≈ 94.9 µM)
[2]; [9]
  MIC: 4 µg/mL (≈ 11.9 µM)
[2]; [10]
  MIC: 16 µg/mL (≈ 47.4 µM)
[2]
  susceptibility/resistance of the S. aureus isolates based on the MIC breakpoints: 3 out of 4 isolates showed resistance

## CC(C)C[C@@H]1NC(=O)[C@@H](CC(C)C)NC(=O)[C@H](C)NC(=O)[C@@H](NC(=O)[C@H](CO)NC(=O)[C@@H](CCCCN)NC(=O)[C@@H](CC(C)C)NC(=O)[C@@H](N)Cc2ccccc2)[C@@H](C)OC1=O [analogue 1]
[3]; [11]
  MIC against MRSA ATCC 33591: 8 µg/mL (≈ 9.15 µM)

## CC(C)C[C@@H]1NC(=O)[C@@H](CC(C)C)NC(=O)[C@H](C)NC(=O)[C@H](NC(=O)[C@H](CO)NC(=O)[C@@H](CCCCN)NC(=O)[C@@H](CC(C)C)NC(=O)[C@@H](N)Cc2ccccc2)[C@H](C)OC1=O [analogue 2]
[3]; [11]
  MIC against MRSA ATCC 33591: 32 µg/mL (≈ 36.6 µM)

## CC(C)C[C@H](NC(=O)[C@H](N)Cc1ccccc1)C(=O)N[C@@H](CCCCN)C(=O)N[C@H](CO)C(=O)N[C@H]1C(=O)N[C@@H](C)C(=O)N[C@@H](CC(C)C)C(=O)N[C@@H](CC(C)C)C(=O)O[C@H]1C [analogue 3]
[3]; [11]
  MIC against MRSA ATCC 33591: 32 µg/mL (≈ 36.6 µM)

## CC(C)C[C@@H]1NC(=O)[C@H](C)NC(=O)[C@H](NC(=O)[C@H](CO)NC(=O)[C@@H](CCCCN)NC(=O)[C@@H](CC(C)C)NC(=O)[C@@H](N)Cc2ccccc2)[C@H](C)OC(=O)[C@H](CC(C)C)NC1=O [analogue 4]
[3]; [11]
  MIC against MRSA ATCC 33591: 2 to 4 µg/mL
[3]; broth dilution in MHB with 0.002% v/v polysorbate 80, inoculum 10^5-10^6 CFU/mL, 37 °C, no visible growth, Table 1, listed as Novltex analogue 4
  MIC against MRSA ATCC 33591: 4 µg/mL (≈ 4.58 µM)

## CC(C)C[C@H](NC(=O)[C@H](N)Cc1ccccc1)C(=O)N[C@H](CCCCN)C(=O)N[C@@H](CO)C(=O)N[C@H]1C(=O)N[C@@H](C)C(=O)N[C@@H](CC(C)C)C(=O)N[C@@H](CC(C)C)C(=O)O[C@H]1C [analogue 5]
[3]; [11]
  MIC against MRSA ATCC 33591: > 32 µg/mL

## CC(C)C[C@@H]1NC(=O)[C@H](C)NC(=O)[C@H](NC(=O)[C@@H](CO)NC(=O)[C@H](CCCCN)NC(=O)[C@@H](CC(C)C)NC(=O)[C@@H](N)Cc2ccccc2)[C@H](C)OC(=O)[C@H](CC(C)C)NC1=O [analogue 6]
[3]; [11]
  MIC against MRSA ATCC 33591: > 32 µg/mL

## CC(C)C[C@@H]1NC(=O)[C@H](C)NC(=O)[C@H](NC(=O)[C@H](CO)NC(=O)[C@H](CCCCN)NC(=O)[C@@H](CC(C)C)NC(=O)[C@H](N)Cc2ccccc2)[C@H](C)OC(=O)[C@H](CC(C)C)NC1=O [analogue 7]
[3]; [11]
  MIC against MRSA ATCC 33591: > 32 µg/mL and 32 µg/mL

## CC(C)C[C@@H]1NC(=O)[C@H](C)NC(=O)[C@H](NC(=O)[C@H](CO)NC(=O)[C@H](CCCCN)NC(=O)[C@H](CC(C)C)NC(=O)[C@@H](N)Cc2ccccc2)[C@H](C)OC(=O)[C@H](CC(C)C)NC1=O [analogue 8]
[3]; [11]
  MIC against MRSA ATCC 33591: > 32 µg/mL

## CC(C)C[C@@H]1NC(=O)[C@H](C)NC(=O)[C@H](NC(=O)[C@@H](CO)NC(=O)[C@@H](CCCCN)NC(=O)[C@@H](CC(C)C)NC(=O)[C@H](N)Cc2ccccc2)[C@H](C)OC(=O)[C@H](CC(C)C)NC1=O [analogue 9]
[3]; [11]
  MIC against MRSA ATCC 33591: 16 µg/mL (≈ 18.3 µM)

## CC[C@H](C)[C@@H]1NC(=O)[C@H](CC(C)C)NC(=O)[C@H](C)NC(=O)[C@H](NC(=O)[C@H](CO)NC(=O)[C@@H](CCCCN)NC(=O)[C@@H](CC(C)C)NC(=O)[C@@H](N)Cc2ccccc2)[C@H](C)OC1=O [analogue 10] (H-F[dL][dK]S[dT]ALI; ester 5-C)
[3]; [11]
  MIC against MRSA ATCC 33591: 8 µg/mL (≈ 9.15 µM)

## CC(C)C[C@@H]1NC(=O)[C@H](C)NC(=O)[C@H](NC(=O)[C@H](CO)NC(=O)[C@@H](CCCCN)NC(=O)[C@H](NC(=O)[C@@H](N)Cc2ccccc2)C2CCCCC2)[C@H](C)OC(=O)[C@H](CC(C)C)NC1=O [analogue 11, Leu2Chg–Novltex] (H-F[dChg][dK]S[dT]ALL; ester 5-C)
[3]
  fold decrease in antibacterial activity (MIC) compared to analogue 12: 32 fold
[3]; [12]
  MIC against MRSA ATCC 33591: 8 µg/mL (≈ 8.89 µM)

## CC(C)C[C@@H]1NC(=O)[C@H](C)NC(=O)[C@H](NC(=O)[C@H](CO)NC(=O)[C@@H](CCCCN)NC(=O)[C@@H](Cc2c[nH]c3ccccc23)NC(=O)[C@@H](N)Cc2ccccc2)[C@H](C)OC(=O)[C@H](CC(C)C)NC1=O [analogue 13, Leu2Trp–Novltex] (H-F[dW][dK]S[dT]ALL; ester 5-C)
[3]; [12]
  MIC against MRSA ATCC 33591: > 32 µg/mL

## CC(C)C[C@@H]1NC(=O)[C@H](C)NC(=O)[C@H](NC(=O)[C@H](CO)NC(=O)[C@@H](CCCCN)NC(=O)[C@@H](Cc2ccccc2)NC(=O)[C@@H](N)Cc2ccccc2)[C@H](C)OC(=O)[C@H](CC(C)C)NC1=O [analogue 14, Leu2Phe–Novltex] (H-F[dF][dK]S[dT]ALL; ester 5-C)
[3]; [12]
  MIC against MRSA ATCC 33591: 8 µg/mL (≈ 8.81 µM)

## CC(C)C[C@@H]1NC(=O)[C@H](C)NC(=O)[C@H](NC(=O)[C@H](CO)NC(=O)[C@@H](CCCCN)NC(=O)[C@@H](Cc2ccc(O)cc2)NC(=O)[C@@H](N)Cc2ccccc2)[C@H](C)OC(=O)[C@H](CC(C)C)NC1=O [analogue 15, Leu2Tyr–Novltex] (H-F[dY][dK]S[dT]ALL; ester 5-C)
[3]; [12]
  MIC against MRSA ATCC 33591: >32 µg/mL

## CC[C@H](C)[C@@H](NC(=O)[C@@H](N)Cc1ccccc1)C(=O)N[C@H](CCCCN)C(=O)N[C@@H](CO)C(=O)N[C@H]1C(=O)N[C@@H](C)C(=O)N[C@@H](CC(C)C)C(=O)N[C@@H](CC(C)C)C(=O)O[C@H]1C [analogue 16, Leu2 D-allo-Ile–Novltex] (H-F[d(aIle)][dK]S[dT]ALL; ester 5-C)
[3]
  fold decrease in antibacterial activity (MIC) compared to analogue 12: 64 fold
[3]; [12]
  MIC against MRSA ATCC 33591: 16 µg/mL (≈ 18.3 µM)

## Clovibactin
[1]; MDR clinical isolate 1563254, MHB, 0.002% polysorbate 80, 37 °C, 24 h, daptomycin with 50 mg/L calcium chloride
  MIC, Enterococcus faecium 1563254: 0.063 µg/mL
[1]; MDR clinical isolate 1581582, MHB, 0.002% polysorbate 80, 37 °C, 24 h, daptomycin with 50 mg/L calcium chloride
  MIC, Enterococcus faecium 1581582: 0.25 µg/mL
[1]; MDR clinical isolate 1766686, MHB, 0.002% polysorbate 80, 37 °C, 24 h, daptomycin with 50 mg/L calcium chloride
  MIC, Enterococcus faecium 1766686: 0.25 µg/mL
[2]; MDR strain NR 45914, MHB, 0.002% polysorbate 80, 37 °C, 24 h, daptomycin with 50 mg/L calcium chloride
  MIC, Staphylococcus aureus NR 45914: 0.063 µg/mL
[2]; MDR strain NR 45926, MHB, 0.002% polysorbate 80, 37 °C, 24 h, daptomycin with 50 mg/L calcium chloride
  MIC, Staphylococcus aureus NR 45926: 0.063 µg/mL
[2]; MDR strain NR 45930, MHB, 0.002% polysorbate 80, 37 °C, 24 h, daptomycin with 50 mg/L calcium chloride
  MIC, Staphylococcus aureus NR 45930: 0.25 µg/mL
[2]; MDR strain NR 46062, MHB, 0.002% polysorbate 80, 37 °C, 24 h, daptomycin with 50 mg/L calcium chloride
  MIC, Staphylococcus aureus NR 46062: 0.063 µg/mL
